Series [1] has as its target T1, Acetylcholinesterase (Electrophorus electricus, UniProt O42275).
Description: Inhibition of electric eel AChE using acetylcholine as substrate preincubated for 5 mins prior to substrate addition measured after 2 mins by Ellman's method
For series [2], the target named is T2, Cholinesterase (Equus caballus, UniProt P81908).
Description: Inhibition of equine serum BChE using acetylcholine as substrate preincubated for 5 mins prior to substrate addition measured after 2 mins by Ellman's method
The target of series [3] is T2, Cholinesterase. The series can be described thus: Competitive inhibition of equine serum BChE by Lineweaver Burk reciprocal plot analysis in presence of acetylcholine.
For series [4] the following is noted: buffer, pH 7.4, 4 h.
Description: Chemical stability of the compound in phosphate buffer assessed as nitrite release after 4 hrs at pH 7.4 by Griess method
Series [5] concerns the target T1, Acetylcholinesterase. The series can be described thus: Mixed-type inhibition of electric eel AChE by Lineweaver Burk reciprocal plot analysis in presence of acetylcholine.
Series [6] is described as follows: Cytotoxicity against Wistar rat primary cortical neurons at 1 uM after 24 hrs by MTT assay. The format is cell-based. The note with it: cerebral cortex neuron. For orientation: Tetrazolium dyes change colour on reduction, which living cells bring about.

T1 sequence (O42275 whole entry): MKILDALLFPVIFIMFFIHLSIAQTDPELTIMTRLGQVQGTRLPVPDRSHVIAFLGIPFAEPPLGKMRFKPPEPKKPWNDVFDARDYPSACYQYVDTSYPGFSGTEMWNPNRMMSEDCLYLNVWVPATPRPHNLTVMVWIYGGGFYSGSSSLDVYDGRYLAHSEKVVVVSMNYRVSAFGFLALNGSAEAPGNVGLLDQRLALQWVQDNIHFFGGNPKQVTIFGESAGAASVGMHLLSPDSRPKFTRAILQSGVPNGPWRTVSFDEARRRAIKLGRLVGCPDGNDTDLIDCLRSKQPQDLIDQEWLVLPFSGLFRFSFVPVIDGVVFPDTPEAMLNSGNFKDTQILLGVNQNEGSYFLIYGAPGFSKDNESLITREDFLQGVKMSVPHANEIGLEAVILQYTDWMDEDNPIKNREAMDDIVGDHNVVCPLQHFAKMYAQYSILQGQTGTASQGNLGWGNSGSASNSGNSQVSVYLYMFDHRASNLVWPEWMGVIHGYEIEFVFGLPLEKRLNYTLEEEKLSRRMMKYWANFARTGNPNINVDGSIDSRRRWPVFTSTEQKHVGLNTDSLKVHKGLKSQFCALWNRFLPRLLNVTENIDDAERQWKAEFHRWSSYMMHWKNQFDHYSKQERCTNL
T2 sequence (P81908 whole entry): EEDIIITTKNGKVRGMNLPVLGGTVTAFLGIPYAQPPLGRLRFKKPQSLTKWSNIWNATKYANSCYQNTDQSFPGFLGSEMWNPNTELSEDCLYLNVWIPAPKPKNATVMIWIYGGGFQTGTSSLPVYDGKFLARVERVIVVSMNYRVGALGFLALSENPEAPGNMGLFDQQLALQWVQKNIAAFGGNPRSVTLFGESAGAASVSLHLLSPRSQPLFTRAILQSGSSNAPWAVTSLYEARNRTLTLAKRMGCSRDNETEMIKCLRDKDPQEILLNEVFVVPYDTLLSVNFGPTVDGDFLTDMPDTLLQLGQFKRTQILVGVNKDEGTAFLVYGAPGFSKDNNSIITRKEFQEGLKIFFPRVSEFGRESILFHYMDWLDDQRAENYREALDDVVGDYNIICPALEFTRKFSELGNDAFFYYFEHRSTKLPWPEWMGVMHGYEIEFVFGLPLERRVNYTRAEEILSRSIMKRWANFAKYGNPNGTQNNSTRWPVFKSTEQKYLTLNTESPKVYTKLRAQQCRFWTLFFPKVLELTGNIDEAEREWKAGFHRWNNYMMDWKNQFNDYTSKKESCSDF

Take `CC(C(=O)NCCCCCCNc1c2c(nc3ccccc13)CCCC2)c1ccc(-c2ccccc2)c(F)c1` (configuration not stated): the IC50 was determined as 19.3 nM against Acetylcholinesterase [1] and 3.7 nM against Cholinesterase [2].

Turning to `CC(C(=O)NCCCCCCCCNc1c2c(nc3ccccc13)CCCC2)c1ccc(-c2ccccc2)c(F)c1` (configuration not stated), the IC50 against Acetylcholinesterase [1] worked out at 34.5 nM; against Cholinesterase [2] it was 2.1 nM.

Consider `CC(C(=O)NCCCCCCNc1c2c(nc3ccccc13)CCCC2)c1ccc(-c2ccc(OCCO[N+](=O)[O-])cc2)c(F)c1` (configuration not stated), for which the Ki on Cholinesterase [3] is 1.7 nM; on Acetylcholinesterase [5] it was 16.1 nM. The Drug metabolism in series [4] amounted to 0.348 µg/mL. Besides, the IC50 against Acetylcholinesterase [1] was found to be 9.1 nM; on Cholinesterase [2], 2.5 nM.

As for `CC(C(=O)NCCCCCCNc1c2c(nc3ccccc13)CCCC2)c1ccc(-c2ccc(OCCCO[N+](=O)[O-])cc2)c(F)c1` (configuration not stated), the Drug metabolism in series [4] was determined as 0.353 µg/mL. For the same compound, the IC50 against Acetylcholinesterase [1] was 18.7 nM; at Cholinesterase [2] it was 2.4 nM.

With `CC(C(=O)NCCCCCCNc1c2c(nc3ccccc13)CCCC2)c1ccc(-c2ccc(OCCCCO[N+](=O)[O-])cc2)c(F)c1` (configuration not stated), the Drug metabolism in series [4] stood at 0.36 µg/mL. In addition, the IC50 on Acetylcholinesterase [1] amounted to 27.4 nM; on Cholinesterase [2], 1.3 nM.

With `CC(C(=O)NCCCCCCNc1c2c(nc3ccccc13)CCCC2)c1ccc(-c2ccc(OCCCCCCO[N+](=O)[O-])cc2)c(F)c1` (configuration not stated), in series [6], the Activity entry is given as “Non-toxic”. In series [4], this compound had a Drug metabolism of 0.283 µg/mL. In addition, the results for the IC50 at Acetylcholinesterase [1] and against Cholinesterase [2] were 31.1 nM and 0.6 nM, respectively.

On to `CC(C(=O)NCCCCCCCCNc1c2c(nc3ccccc13)CCCC2)c1ccc(-c2ccc(OCCO[N+](=O)[O-])cc2)c(F)c1` (configuration not stated), for which, in series [4], the Drug metabolism was 0.565 µg/mL. The figures for the IC50 against Acetylcholinesterase [1] and against Cholinesterase [2] were 12.5 nM and 1 nM, respectively.

With `CC(C(=O)NCCCCCCCCNc1c2c(nc3ccccc13)CCCC2)c1ccc(-c2ccc(OCCCO[N+](=O)[O-])cc2)c(F)c1` (configuration not stated), the Drug metabolism in series [4] turned out to be 0.353 µg/mL. The values for the IC50 against Acetylcholinesterase [1] and on Cholinesterase [2] were 30.6 nM and 1.6 nM, respectively.

For the compound `CC(C(=O)NCCCCCCCCNc1c2c(nc3ccccc13)CCCC2)c1ccc(-c2ccc(OCCCCO[N+](=O)[O-])cc2)c(F)c1` (configuration not stated), in series [4], the Drug metabolism is 0.36 µg/mL. Moreover, the concentration for half-maximal inhibition (IC50) on Acetylcholinesterase [1] came out at 70.9 nM; against Cholinesterase [2], 1.3 nM.

`CC(C(=O)NCCCCCCCCNc1c2c(nc3ccccc13)CCCC2)c1ccc(-c2ccc(OCCCCCCO[N+](=O)[O-])cc2)c(F)c1` (configuration not stated) had a Drug metabolism in series [4] of 0.34 µg/mL. The figures for the IC50 against Acetylcholinesterase [1] and on Cholinesterase [2] were 226 nM and 1.5 nM, respectively.

With `O=[N+]([O-])O[C@@H]1CO[C@H]2[C@@H]1OC[C@@H]2O` [ISOSORBIDE MONONITRATE], the Drug metabolism in series [4] is 0.412 µg/mL.

One may read the IC50 as the point on the concentration scale where inhibition reaches its midpoint. A higher IC50 goes with weaker potency in that assay. In general, Ki refers to the dissociation constant of the complex between target and ligand, obtained from inhibition or displacement.

Values taken from ChEMBL document CHEMBL2375273, “Design, synthesis and evaluation of tacrine-flurbiprofen-nitrate trihybrids as novel anti-Alzheimer's disease agents” (Bioorg Med Chem, 2013).
